Experimental data: publication PMC7279038, “Antioxidant and Neuroprotective Effects Induced by Cannabidiol and Cannabigerol in Rat CTX-TNA2 Astrocytes and Isolated Cortexes” (International Journal of Molecular Sciences, 2020)

Columns and labels:
[1] = system: isolated rat cortexes, kynurenic acid (KA); experiment: K+ 60 mM neurotoxicity paradigm, kynurenic acid level; conditions: for effect on K+ 60 mM-induced reduction in kynurenic acid (KA) level: CBD 1000 nM, CBG 1 nM
Procedure: (§1) Sprague–Dawley rats (200–250 g) were sacrificed by CO2 inhalation (Italian Health Ministry authorization N. F4738.N.XTQ, delivered on 11th November 2018) and isolated prefrontal cortex specimens were immediately explanted and incubated in thermostatic shaking bath at 37 °C for 1 h (incubation period), in Krebs–Ringer buffer at the following K^+ concentrations:
(§2) Cortexes were stimulated with CBD (1000 nM) and […]. Afterwards, specimens were homogenized in perchloric acid solution (0.05 M) for the extraction and quantification of nitrites, via the aforementioned colorimetric Griess assay, and serotonin (5-HT), 5-hydroxyindoleacetic (5HIIA),3-hydroxykinurenine (3-HK) and kinurenic acid (KA) (ng/mg wet tissue) via high performance liquid chromatography analysis. Additionally, an untargeted proteomic analysis was carried out on the cortex homogenate. The analytical protocols for 5-HT, 5HIIA, 3-HK, KA and protein level determinations are described below. The analyses were conducted in triplicate and in independent facilities with blind modality.
The KA quantitative determination was performed by using a liquid chromatograph (MOD. 1525, Waters Corporation, Milford MA, USA) equipped with a fluorimetric detector (MOD. 2475, Waters Corporation), a C18 reversed-phase column (AcclaimTM 120, 3 µm, 2.1 × 100 mm, Dionex Corporation, Sunnyvale, CA, USA), and an online degasser (Biotech 4-CH degasi compact, LabService, Anzola Emilia, Italy). The separation was conducted in isocratic conditions and the mobile phase consisted of 250 mM zinc acetate, 50 mM sodium acetate, and 3% acetonitrile (pH adjusted to 6.2 with glacial acetic acid), using a flow rate of 1.0 mL/min. In the eluate, the KA was identified and measured fluorimetrically (excitation: 344 nm; emission: 398 nm).

[2] = system: isolated rat cortexes, 3-HK; experiment: K+ 60 mM neurotoxicity paradigm, 3-HK level; conditions: for effect on K+ 60 mM-induced increase in 3-HK level: CBD 1000 nM, CBG 1 nM
Procedure: as §1, §2
Tissue 3-HK, 5-HT and 5HIIA levels were analyzed through an HPLC apparatus consisting of a Jasco (Tokyo, Japan) PU-2080 chromatographic pump and an ESA (Chelmsford, MA, USA) Coulochem III coulometric detector, equipped with a microdialysis cell (ESA-5014b), a porous graphite working electrode and a solid state palladium reference electrode. The analytical conditions for identification and quantification were selected according to previous studies. Specifically, the analytical cell was set at −0.150 V for detector 1 and at +0.300 V for detector 2, with a range of 100 nA. The chromatograms were monitored at the analytical detector 2. […] Sample concentrations were calculated by linear regression curve (y = bx + m) obtained with standard. Neither internal nor external standards were necessary for analyte quantification in the cortex homogenate, and all tests performed for method validation and yielded results in accordance with limits indicated in official guidelines for applicability in laboratory trials. […]

syntaxin 1b (Stx 1b) = experiment: Untargeted proteomic analysis of cortexes, Stx 1b; design: species or system rat; conditions: CBD 1000 nM, CBG 1 nM
Procedure: as §1
as §2, with “The analyses were conducted in triplicate and in independent facilities with blind modality.” left out
After protein quantification, a volume corresponding to 50 μg of proteins was loaded onto a Nanosep 10-kDa-cutoff filter (Pall Corporation, Michigan, USA) and digested according to the protocol we routinely use in our laboratory, adapted from Distler et al. Briefly, the sample was washed twice with 200 μL urea buffer (8M urea, 100 mM Tris pH 8.5 in milliQ water) to remove the detergents present in the lysis buffer. […]

Row | Compound | effect on K+ 60 mM-induced reduction in kynurenic acid (KA) level [1] | effect on K+ 60 mM-induced increase in 3-HK level [2] | effect on K+ 60 mM-induced reduction in Stx 1b level (syntaxin 1b (Stx 1b)) | KA level ([1]; basal conditions only) | 3-HK level ([2]; basal conditions only)
1 | C=C(C)[C@@H]1CCC(C)=C[C@H]1c1c(O)cc(CCCCC)cc1O [CBD, Cannabidiol] | successful in blunting | successful in blunting | blocking the downregulation |  | 
2 | CCCCCc1cc(O)c(C/C=C(\C)CCC=C(C)C)c(O)c1 [CBG, cannabigerol] | completely ineffective | completely ineffective | completely ineffective | increase KA levels | reduce 3-HK
